Drawing on patent US8153651B2, “Amide derivatives as ion-channel ligands and pharmaceutical compositions and methods of using the same” (Evotec AG, priority 2007, dated 2012), this text covers IC50 for 23 compounds.

Where two headings read alike, the source gives them in different places. Where only a bound is given, the exact number is not on record here.

This assay concerns the target T1, hVR1 (Homo sapiens, UniProt Q8NER1).
T1 construct: expressed in transfected cells; host or cells: T-REx System cell line (Invitrogen Cat# R710-07), called 'human keratinocyte cell line' and 'HEK 293 cells'; vector pcDNA5/TO (Invitrogen Cat# V1033-20); expression induced with doxycycline
As to the kind of experiment: Calcium uptake assay (FLIPR), inhibition of agonist-induced calcium influx in cells expressing hVR1. It is filed as cell-based. The conditions noted are these: cells expressing human VR1, 2 or 30 min pre-incubation. As to the method:
The syntheses of these representative compounds were carried out in accordance with the methods set forth above, and activity of the compounds was measured by percent inhibition in a calcium uptake assay, the details of which are described below.
Functional activity of compounds against the VR1 receptor was determined by measuring changes in intracellular calcium in HEK 293 cells expressing hVR1. Compounds were examined for their ability to inhibit agonist-induced calcium influx. Relative levels of [Ca^2+] were monitored in a 96-well format using a calcium-sensitive fluorescence dye and a FLIPR TETRA, Molecular Devices.
Cells that express high levels of VR1 were obtained by generation of a cell line from human keratinocytes with heterologous expression of VR1 under control of an inducible promoter. Specifically, cells expressing human VR1 under the control of the human cytomegalovirus immediate-early (CMV) promoter and two tetracycline operator 2 (TetO2) sites were made using the T-REx System (Invitrogen, Carlsbad, Calif., USA). Details and methods concerning this system are published (Hum. Gene Ther. 9, pp. 1939-1950, 1998; Annu. Rev. Microbiol. 48, pp. 345-369, 1994; Mol. Biol. 169, pp. 707-721, 1983). Human VR1 was subcloned into the T-REx System pcDNA5/TO vector (Invitrogen Cat# V1033-20) which was transfected into the T-REx System human keratinocyte cell line (Invitrogen Cat# R710-07) from which a stable cell line was established which expresses VR1 after induction by exposure to tetracycline or doxycycline (Hum. Gene Ther. 9, pp. 1939-1950, 1998; instructions that come with purchase of products noted above). Cells were maintained in a CO2 incubator (5% CO2) at 37° C. in culture medium containing DMEM with phenol red (Mediatech Cat #: 15-017-CV) supplemented with 10% heat-inactivated Fetal Bovine Serum, 5% Penicillin-streptomycin (Mediatech Cat #: 30-002-CI), 5% Glutamax® (L-Alanyl-L-Glutamine, Mediateach Cat #: 25-015-CI), 200 μg/ml hygromycin (Mediatech #:30-240-CR), 0.5 μg/ml blasticidin (Invitrogen #46-1120)).
For assay preparation, cells expressing human VR1 as described above were plated in 96-well plates (Becton Dickinson [BD] poly-D-lysine coated 96-well plates, cat#356692) at 55,000 cells per well in culture media (described above) that also contained 1 ug/ml doxycycline. Plated cells were then placed in an incubator (5% CO2) and incubated for 20-26 hours at 37° C., until the cells had grown to near confluency. Media was then aspirated from cells and 50 uL of dye-containing buffer (from Molecular Devices FLIPR Calcuim 4 Assay kit, cat# R8141) was added to each well. Cells were then left in the dark at room temperature for 1.5-2 hours. Cell plates were then placed in the FLIPR TETRA (Molecular Devices, CA, USA). Test compounds and agonists were added to wells using the liquid handling capability of the FLIPR TETRA. Calcuim responses of the cells were monitored by fluorescence readout of dye signal. Test compounds in saline (130 mM NaCl, 17 g/L sucrose, 1.8 g/L glucose, 8.8 mM HEPES, 3 mM KCl, 0.60 mM MgCl, 1.0 mM CaCl2; adjust to pH 7.4 using NaOH; 0.03% BSA added on the day of the experiment), or vehicle control in saline, were pre-incubated at the desired final concentrations in the dark at room temperature for 2 or 30 minutes with cells already containing the above mentioned dye buffer (dye solution was diluted 1:1 in culture wells with saline containing 2× the final concentration of test compound). […] Another agonist was protons via a low pH solution (saline solution described above plus 10 mM citric acid buffered to pH 5.7 with HCl instead of buffering to a neutral pH with NaOH as done for normal saline). Compounds were tested at various concentration ranges, depending upon potency of compound.

Where [1] appears, read: IC50 (nM) Capsaicin, agonist capsaicin at 10 nM or its EC50.
Where [2] appears, read: agonist protons, low pH solution pH 5.7, read-out: IC50 (nM) Low pH.
The mark [3] stands for this setting: read-out: IC50 (nM) Capsaicin, agonist capsaicin at 10 nM or its EC50.

T1 sequence (Q8NER1 whole entry): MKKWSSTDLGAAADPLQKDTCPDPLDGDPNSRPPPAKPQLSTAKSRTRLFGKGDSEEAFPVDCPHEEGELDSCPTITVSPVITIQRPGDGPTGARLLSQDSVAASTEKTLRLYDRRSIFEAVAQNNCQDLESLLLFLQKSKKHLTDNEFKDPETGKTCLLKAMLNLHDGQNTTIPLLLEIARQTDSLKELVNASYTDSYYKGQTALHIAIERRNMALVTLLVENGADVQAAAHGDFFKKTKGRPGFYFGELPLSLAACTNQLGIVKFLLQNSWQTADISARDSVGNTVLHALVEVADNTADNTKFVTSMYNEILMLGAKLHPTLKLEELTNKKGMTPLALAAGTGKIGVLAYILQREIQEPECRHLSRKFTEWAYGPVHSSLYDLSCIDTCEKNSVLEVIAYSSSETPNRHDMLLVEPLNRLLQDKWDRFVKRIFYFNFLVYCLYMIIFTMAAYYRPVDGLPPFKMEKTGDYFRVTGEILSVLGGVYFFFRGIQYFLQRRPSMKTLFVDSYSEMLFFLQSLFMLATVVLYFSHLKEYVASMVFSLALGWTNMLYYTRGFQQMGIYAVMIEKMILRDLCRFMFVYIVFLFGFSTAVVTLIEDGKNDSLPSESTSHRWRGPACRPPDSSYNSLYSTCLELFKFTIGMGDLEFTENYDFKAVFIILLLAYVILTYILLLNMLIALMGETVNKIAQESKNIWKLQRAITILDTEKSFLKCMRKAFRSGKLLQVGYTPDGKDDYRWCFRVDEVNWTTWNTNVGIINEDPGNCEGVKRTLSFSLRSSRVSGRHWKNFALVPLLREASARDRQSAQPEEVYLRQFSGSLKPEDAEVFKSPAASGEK

For the compound `COC(C)(C)c1ccc2c(n1)CC[C@@H](C(=O)N[C@H](C)c1cc(C)c(NS(C)(=O)=O)cc1F)C2` (single isomer, unassigned) [Example 14], the IC50 by setting is: under setting [1], 101 to 500 nM; under setting [2], 101 to 500 nM.
In the case of `COC(C)(C)c1ccc2c(n1)CC[C@H](C(=O)N[C@H](C)c1cc(C)c(NS(C)(=O)=O)cc1F)C2` (single isomer, unassigned) [Example 15], the half-maximal inhibitory concentration (IC50) under setting [1] is less than 100 nM and the IC50 under setting [2] is less than 100 nM.
With `Cc1cc([C@@H](C)NC(=O)C2=Cc3ccccc3OC2)c(F)cc1NS(C)(=O)=O` [Example 1, (R)—N-(1-(2-Fluoro-5-methyl-4-(methylsulfonamido)phenyl)ethyl)-2h-chromene-3-carboxamide], the IC50 reads like this: under setting [1], less than 100 nM; under setting [2], 101 to 500 nM.
On the same counts, the results for `Cc1cc([C@@H](C)NC(=O)C2CCc3ccccc3O2)c(F)cc1NS(C)(=O)=O` (some centres unmarked) [Example 2] are 101 to 500 nM and greater than 1000 nM.
As for `Cc1cc([C@@H](C)NC(=O)C2CCc3ccccc3C2)c(F)cc1NS(C)(=O)=O` (some centres unmarked) [Example 3, 1,2,3,4-Tetrahydronaphthalene-2-carboxylic acid f(r)-1-(2-fluoro-4-methanesulfonylamino-5-methylphenyl)ethylamide], the IC50 is less than 100 nM under setting [1] and 101 to 500 nM under setting [2].
In the same order, the values of `Cc1cc([C@@H](C)NC(=O)C2=Cc3cc(Cl)ccc3OC2)c(F)cc1NS(C)(=O)=O` [Example 4] are less than 100 nM and less than 100 nM.
Consider `COc1ccc2c(c1)CCC(C(=O)N[C@H](C)c1cc(C)c(NS(C)(=O)=O)cc1F)C2C` (some centres unmarked) [Example 5], for which the IC50 runs as follows: under setting [1], 101 to 500 nM; under setting [2], greater than 1000 nM.
In the case of `Cc1cc([C@@H](C)NC(=O)C2COc3ccc(Cl)cc3C2)c(F)cc1NS(C)(=O)=O` (some centres unmarked) [Example 6], the IC50 runs as follows: under setting [1], less than 100 nM; under setting [2], less than 100 nM.
With `Cc1cc([C@@H](C)NC(=O)C2CN(C)c3cc(C(F)(F)F)ccc3O2)c(F)cc1NS(C)(=O)=O` (some centres unmarked) [Example 7], the half-inhibitory concentration (IC50) reads like this: under setting [1], less than 100 nM; under setting [2], less than 100 nM.
In the case of `Cc1cc([C@@H](C)NC(=O)C2CCc3nc(C(C)(C)C(F)(F)F)ccc3C2)c(F)cc1NS(C)(=O)=O` (stereo partly drawn) [Example 8, N—((R)-1-(2-Fluoro-5-methyl-4-(methylsulfonamido)phenyl)ethyl)-2-(1,1,1-trifluoro-2-methylpropan-2-yl)-5,6,7,8-tetrahydroquinoline-6-carboxamide], under setting [1], the IC50 was less than 100 nM.
Consider `Cc1cc([C@@H](C)NC(=O)[C@@H]2CCc3nc(C(C)(C)C(F)(F)F)ccc3C2)c(F)cc1NS(C)(=O)=O` [Example 9, (R)—N—((R)-1-(2-Fluoro-5-methyl-4-(methylsulfonamido)phenyl)ethyl)-2-(1,1,1-trifluoro-2-methylpropan-2-yl)-5,6,7,8-tetrahydroquinoline-6-carboxamide], for which the IC50 under setting [2] was less than 100 nM.
Consider `Cc1cc([C@@H](C)NC(=O)[C@H]2CCc3nc(C(C)(C)C(F)(F)F)ccc3C2)c(F)cc1NS(C)(=O)=O` [Example 10, (S)—N—((R)-1-(2-Fluoro-5-methyl-4-(methylsulfonamido)phenyl)ethyl)-2-(1,1,1-trifluoro-2-methylpropan-2-yl)-5,6,7,8-tetrahydroquinoline-6-carboxamide], for which, under setting [3], the half-maximal inhibitory concentration (IC50) was less than 100 nM.
On to `COc1ccc2c(c1)CCC(C(=O)NC(C)c1cc(C)c(NS(C)(=O)=O)cc1F)C2` (centres unmarked) [Example 11, 6-Methoxy-1,2,3,4-tetrahydro-naphthalene-2-carboxylic acid [1-(2-fluoro-4-methanesulfonylamino-5-methyl-phenyl)-ethyl]-amide], for which, under setting [1], the IC50 lay in the range of 101 to 500 nM.
On the same count and under the same terms, for `Cc1cc([C@@H](C)NC(=O)C2CCc3nc(C(F)(F)F)ccc3C2)c(F)cc1NS(C)(=O)=O` (stereo partly drawn) [Example 12, N—((R)-1-(2-Fluoro-5-methyl-4-(methylsulfonamido)phenyl)ethyl)-2-(trifluoromethyl)-5,6,7,8-tetrahydroquinoline-6-carboxamide] the value was less than 100 nM.
Turning to `Cc1cc([C@@H](C)NC(=O)C2CCc3nc(C(C)(C)O)ccc3C2)c(F)cc1NS(C)(=O)=O` (stereo partly drawn) [Example 13, N—((R)-1-(2-fluoro-5-methyl-4-(methylsulfonamido)phenyl)ethyl)-2-(2-hydroxypropan-2-yl)-5,6,7,8-tetrahydroquinoline-6-carboxamide], the IC50 under setting [1] fell in the range of 101 to 500 nM.
With `Cc1cc([C@@H](C)NC(=O)[C@@H]2COc3cc(C(F)(F)F)ccc3O2)c(F)cc1NS(C)(=O)=O` [Example 16, (S)—N—((R)-1-(2-fluoro-5-methyl-4-(methylsulfonamido)phenyl)ethyl)-6-(trifluoromethyl)-2,3-dihydrobenzo[b][1,4]dioxine-2-carboxamide], the IC50 under setting [1] lay within 101 to 500 nM.
Still for that read-out and setting: for `Cc1cc([C@@H](C)NC(=O)[C@H]2COc3ccc(C(F)(F)F)cc3O2)c(F)cc1NS(C)(=O)=O` [Example 17, (R)—N—((R)-1-(2-fluoro-5-methyl-4-(methylsulfonamido)phenyl)ethyl)-7-(trifluoromethyl)-2,3-dihydrobenzo[b][1,4]dioxine-2-carboxamide] the value was less than 100 nM; for `Cc1cc([C@@H](C)NC(=O)[C@@H]2COc3ccc(C(F)(F)F)cc3O2)c(F)cc1NS(C)(=O)=O` [Example 19, (S)—N—((R)-1-(2-fluoro-5-methyl-4-(methylsulfonamido)phenyl)ethyl)-7-(trifluoromethyl)-2,3-dihydrobenzo[b][1,4]dioxine-2-carboxamide], 101 to 500 nM; for `Cc1cc([C@@H](C)NC(=O)[C@H]2CCc3nc(C4(C)OCCO4)ccc3C2)c(F)cc1NS(C)(=O)=O` [Example 20, (S)—N—((R)-1-(2-fluoro-5-methyl-4-(methylsulfonamido)phenyl)ethyl)-2-(2-methyl-1,3-dioxolan-2-yl)-5,6,7,8-tetrahydroquinoline-6-carboxamide], 101 to 500 nM.
On to `Cc1cc([C@@H](C)NC(=O)C2COc3nc(C(F)(F)F)ccc3O2)c(F)cc1NS(C)(=O)=O` (stereo partly drawn) [Example 21, 6-trifluoromethyl-2,3-dihydro[1,4]dioxino[2,3-b]pyridine-2-carboxylic acid [(R)-1-(2-fluoro-4-methanesulfonylamino-5-methylphenyl)ethyl]amide], for which, under setting [1], the IC50 is 101 to 500 nM.
Turning to `C[C@@H](NC(=O)[C@H]1COc2cc(C(F)(F)F)ccc2O1)c1ccc(NS(C)(=O)=O)c(F)c1` [Example 22, (R)-6-Trifluoromethyl-2,3-dihydrobenzo[1,4]dioxine-2-carboxylic acid [(R)-1-(3-fluoro-4-methanesulfonylaminophenyl)ethyl]amide], under setting [1], the IC50 was less than 100 nM.
As to `C[C@@H](NC(=O)[C@H]1COc2cc(C(F)(F)F)ccc2O1)c1ccc(NS(C)(=O)=O)c(Cl)c1` [Example 23], the half-maximal inhibitory concentration (IC50) under setting [1] was less than 100 nM.
As for “(R)—N—((R)-1-(2-fluoro-5-methyl-4-(methylsulfonamido)phenyl)ethyl)-6-(trifluoromethyl)-2,3-dihydrobenzo[b][1,4]dioxine-2-carboxamide [Example 18]”, under setting [3], the IC50 is less than 100 nM.

The IC50 is the concentration needed to halve the response being measured.
